According to PubChem BioAssay AID2060491 (Molecular Pharmacology Branch, DTP, NCI, 2025):

Tested on: 857933-349-R-J2-PDC complex spheroids, viability
Assay: Anticancer human tumor 857933-349-R-J2-PDC patient-derived colon adenocarcinoma cell line growth inhibition [GQUAD]
Conditions: for IC50: curve of first compound; for viability, T/C: stronger effect = lower value
Summary of the method: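 Viability of tumor cells grown as complex spheroids with endothelial and stromal cells, exposed to drug combinations. Top concentration at or near clinical Cmax (else 10 microM), diluted in half-log increments.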

[1] = second compound 0.0316 µM, first compound 0.0316 µM
[2] = second compound 0.0316 µM, first compound 0.1 µM
[3] = second compound 0.0316 µM, first compound 0.316 µM
[4] = second compound 0.0316 µM, first compound 1 µM
[5] = second compound 0.0316 µM, first compound 3.16 µM
[6] = second compound 0.0316 µM, first compound 10 µM
[7] = second compound 0.1 µM, first compound 0.0316 µM
[8] = second compound 0.1 µM, first compound 0.1 µM
[9] = second compound 0.1 µM, first compound 0.316 µM
[10] = second compound 0.1 µM, first compound 1 µM
[11] = second compound 0.1 µM, first compound 3.16 µM
[12] = second compound 0.1 µM, first compound 10 µM
[13] = second compound 0.316 µM, first compound 0.0316 µM
[14] = second compound 0.316 µM, first compound 0.1 µM
[15] = second compound 0.316 µM, first compound 0.316 µM
[16] = second compound 0.316 µM, first compound 1 µM
[17] = second compound 0.316 µM, first compound 3.16 µM
[18] = second compound 0.316 µM, first compound 10 µM
[19] = second compound 1 µM, first compound 0.0316 µM
[20] = second compound 1 µM, first compound 0.1 µM
[21] = second compound 1 µM, first compound 0.316 µM
[22] = second compound 1 µM, first compound 1 µM
[23] = second compound 1 µM, first compound 3.16 µM
[24] = second compound 1 µM, first compound 10 µM
[25] = second compound 3.16 µM, first compound 0.0316 µM
[26] = second compound 3.16 µM, first compound 0.1 µM
[27] = second compound 3.16 µM, first compound 0.316 µM
[28] = second compound 3.16 µM, first compound 1 µM
[29] = second compound 3.16 µM, first compound 3.16 µM
[30] = second compound 3.16 µM, first compound 10 µM
[31] = second compound 10 µM, first compound 0.0316 µM
[32] = second compound 10 µM, first compound 0.1 µM
[33] = second compound 10 µM, first compound 0.316 µM
[34] = second compound 10 µM, first compound 1 µM
[35] = second compound 10 µM, first compound 3.16 µM
[36] = second compound 10 µM, first compound 10 µM
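Also: spheroids exposed to compounds for one week before readout.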
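For viability, T/C in this document: percent viability relative to vehicle DMSO wells taken as 100%.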

SMILES: C#Cc1c(F)ccc2cc(O)cc(-c3ncc4c(N5CC6CCC(C5)N6)nc(OCC56CCCN5CC(F)C6)nc4c3F)c12 (stereo unspecified) + CN(C)c1ccc(Nc2c3ccc(NC(=O)CCN4CCCC4)cc3nc3cc(NC(=O)CCN4CCCC4)ccc23)cc1
- IC50 (second compound 0.0316 µM): > 10 µM
- IC50 (second compound 0.1 µM): > 10 µM
- IC50 (second compound 0.316 µM): > 10 µM
- IC50 (second compound 1 µM): > 10 µM
- IC50 (second compound 3.16 µM): > 10 µM
- IC50 (second compound 10 µM): > 10 µM
- viability, T/C [1]: 111%
- viability, T/C [2]: 96.2%
- viability, T/C [3]: 98.1%
- viability, T/C [4]: 96.8%
- viability, T/C [5]: 102%
- viability, T/C [6]: 90.3%
- viability, T/C [7]: 104%
- viability, T/C [8]: 104%
- viability, T/C [9]: 96.1%
- viability, T/C [10]: 101%
- viability, T/C [11]: 94.3%
- viability, T/C [12]: 94.6%
- viability, T/C [13]: 99.1%
- viability, T/C [14]: 97%
- viability, T/C [15]: 95.5%
- viability, T/C [16]: 92%
- viability, T/C [17]: 96.2%
- viability, T/C [18]: 87%
- viability, T/C [19]: 97.1%
- viability, T/C [20]: 88.7%
- viability, T/C [21]: 91.3%
- viability, T/C [22]: 77.8%
- viability, T/C [23]: 91.4%
- viability, T/C [24]: 80.3%
- viability, T/C [25]: 81.6%
- viability, T/C [26]: 75.1%
- viability, T/C [27]: 80.6%
- viability, T/C [28]: 69.7%
- viability, T/C [29]: 78.2%
- viability, T/C [30]: 74.7%
- viability, T/C [31]: 67.4%
- viability, T/C [32]: 67.5%
- viability, T/C [33]: 63.5%
- viability, T/C [34]: 68.8%
- viability, T/C [35]: 71%
- viability, T/C [36]: 58.9%

SMILES: CCCS(=O)(=O)Nc1ccc(F)c(C(=O)c2c[nH]c3ncc(-c4ccc(Cl)cc4)cc23)c1F + CN(C)c1ccc(Nc2c3ccc(NC(=O)CCN4CCCC4)cc3nc3cc(NC(=O)CCN4CCCC4)ccc23)cc1
- IC50 (second compound 0.0316 µM): 5.65 µM
- IC50 (second compound 0.1 µM): 5.53 µM
- IC50 (second compound 0.316 µM): 5.65 µM
- IC50 (second compound 1 µM): 5.45 µM
- IC50 (second compound 3.16 µM): 5.03 µM
- IC50 (second compound 10 µM): 3.18 µM
- viability, T/C [1]: 108%
- viability, T/C [2]: 101%
- viability, T/C [3]: 102%
- viability, T/C [4]: 96.8%
- viability, T/C [5]: 95.5%
- viability, T/C [6]: 5.26%
- viability, T/C [7]: 110%
- viability, T/C [8]: 106%
- viability, T/C [9]: 96.4%
- viability, T/C [10]: 106%
- viability, T/C [11]: 92.5%
- viability, T/C [12]: 5.04%
- viability, T/C [13]: 104%
- viability, T/C [14]: 101%
- viability, T/C [15]: 96.5%
- viability, T/C [16]: 96.7%
- viability, T/C [17]: 95.3%
- viability, T/C [18]: 5.41%
- viability, T/C [19]: 101%
- viability, T/C [20]: 89.6%
- viability, T/C [21]: 96.7%
- viability, T/C [22]: 93.1%
- viability, T/C [23]: 89.9%
- viability, T/C [24]: 5.58%
- viability, T/C [25]: 83.5%
- viability, T/C [26]: 73.5%
- viability, T/C [27]: 81.2%
- viability, T/C [28]: 75.8%
- viability, T/C [29]: 79.7%
- viability, T/C [30]: 7.65%
- viability, T/C [31]: 63.1%
- viability, T/C [32]: 66.5%
- viability, T/C [33]: 56.8%
- viability, T/C [34]: 59.1%
- viability, T/C [35]: 51%
- viability, T/C [36]: 12.3%

SMILES: COc1cc(C2c3cc4c(cc3C(OC3OC5COC(C)OC5C(O)C3O)C3COC(=O)C23)OCO4)cc(OC)c1O (stereo unspecified) + CN(C)c1ccc(Nc2c3ccc(NC(=O)CCN4CCCC4)cc3nc3cc(NC(=O)CCN4CCCC4)ccc23)cc1
- IC50 (second compound 0.0316 µM): 6.11 µM
- IC50 (second compound 0.1 µM): 6.68 µM
- IC50 (second compound 0.316 µM): 5.7 µM
- IC50 (second compound 1 µM): 5.97 µM
- IC50 (second compound 3.16 µM): 5.78 µM
- IC50 (second compound 10 µM): 5.77 µM
- viability, T/C [1]: 98.2%
- viability, T/C [2]: 95.4%
- viability, T/C [3]: 80.3%
- viability, T/C [4]: 79.3%
- viability, T/C [5]: 58.8%
- viability, T/C [6]: 42.1%
- viability, T/C [7]: 96.3%
- viability, T/C [8]: 102%
- viability, T/C [9]: 84.3%
- viability, T/C [10]: 76.3%
- viability, T/C [11]: 59.6%
- viability, T/C [12]: 44.8%
- viability, T/C [13]: 102%
- viability, T/C [14]: 95.8%
- viability, T/C [15]: 79.1%
- viability, T/C [16]: 70.2%
- viability, T/C [17]: 60.2%
- viability, T/C [18]: 41.8%
- viability, T/C [19]: 101%
- viability, T/C [20]: 89.6%
- viability, T/C [21]: 83.3%
- viability, T/C [22]: 68.4%
- viability, T/C [23]: 61.6%
- viability, T/C [24]: 41.6%
- viability, T/C [25]: 90.8%
- viability, T/C [26]: 81.2%
- viability, T/C [27]: 84.6%
- viability, T/C [28]: 71.8%
- viability, T/C [29]: 60.9%
- viability, T/C [30]: 40.3%
- viability, T/C [31]: 74.4%
- viability, T/C [32]: 76.9%
- viability, T/C [33]: 71%
- viability, T/C [34]: 67%
- viability, T/C [35]: 58.2%
- viability, T/C [36]: 42.7%
